Data reported in patent US12263248B2, “Compounds and compositions for intracellular delivery of therapeutic agents” (ModernaTX, Inc., priority 2018, dated 2025).

Key:
[1] = Particle size and polydispersity index of nanoparticle compositions (Zetasizer Nano ZS); format: physicochemical; conditions: Table 1A; for Size (nm): lipid:DSPC:cholesterol:PEG-DMG 50:10:38.5:1.5 mol %
Method: A Zetasizer Nano ZS (Malvern Instruments Ltd, Malvern, Worcestershire, UK) can be used to determine the particle size, the polydispersity index (PDI) and the zeta potential of the nanoparticle compositions in 1×PBS in determining particle size and 15 mM PBS in determining zeta potential.

luciferase (Luc) mRNA [2] = assay: Luc expression, whole body bioluminescence after intravenous administration to mice; format: in vivo; conditions: for Total Flux 3 hours / Total Flux 6 hours / Total Flux 24 hours: mice, i.v., 0.5 mg/kg, Luc mRNA; for Fold increase in total body Luc Flux relative to MC3 at 6 h: Table 3A; for Fold increase in total body Luc Flux relative to MC3 at 6 h / 6 h Lipid/MC3 Avg. Luc Expression / Fold increase AUC Lipid/MC3 / AUC (h * p/s): i.v. administration; for 6 h Lipid/MC3 Avg. Luc Expression / Fold increase AUC Lipid/MC3 / AUC (h * p/s): Table 3C
Method: In order to monitor how effectively various nanoparticle compositions deliver therapeutic and/or prophylactics to targeted cells, different nanoparticle compositions including a particular therapeutic and/or prophylactic (for example, a modified or naturally occurring RNA such as an mRNA) are prepared and administered to rodent populations. Mice are intravenously, intramuscularly, intraarterially, or intratumorally administered a single dose including a nanoparticle composition with a formulation such as those provided in Example 3. In some instances, mice may be made to inhale doses. Dose sizes may range from 0.001 mg/kg to 10 mg/kg, where 10 mg/kg describes a dose including 10 mg of a therapeutic and/or prophylactic in a nanoparticle composition for each 1 kg of body mass of the mouse. A control composition including PBS may also be employed.
Upon administration of nanoparticle compositions to mice, dose delivery profiles, dose responses, and toxicity of particular formulations and doses thereof can be measured by enzyme-linked immunosorbent assays (ELISA), bioluminescent imaging, or other methods. For nanoparticle compositions including mRNA, time courses of protein expression can also be evaluated. Samples collected from the rodents for evaluation may include blood, sera, and tissue (for example, muscle tissue from the site of an intramuscular injection and internal tissue); sample collection may involve sacrifice of the animals.
The efficacy of the nanoparticle compositions presented in Table 1A was evaluated with a bioluminescence study. Formulations were administered intravenously to mice (n=6) at a dosage of 0.5 mg/kg (mpk) and bioluminescence measured at 3, 6, and 24 hour time points. The standard MC3 formulation and, in some instances, a control (e.g., a PBS control) were evaluated for comparison. […] In general, flux decreased as time progressed to less than 10% of the initial flux.
(§1) Whole body and ex vivo organ bioluminescent imaging of mice: CD-1 mice were injected 15 minutes prior to the imaging timepoint intraperitoneally (IP) with 200 μL Xenolight D-luciferin K+ salt, diluted in PBS just prior to use to a concentration of 15 mg/mL. Ex vivo imaging of organs was completed within 25 minutes of luciferin administration. All images were quantified by region of interest for total flux.

[3] = Encapsulation efficiency of RNA (QUANT-IT RIBOGREEN RNA assay); format: physicochemical; conditions: Table 1A
Method: For nanoparticle compositions including an RNA, a QUANT-IT™ RIBOGREEN® RNA assay (Invitrogen Corporation Carlsbad, CA) can be used to evaluate the encapsulation of an RNA by the nanoparticle composition. The samples are diluted to a concentration of approximately […] in a TE buffer solution (10 mM Tris-HCl, 1 mM EDTA, pH 7.5). 50 μL of the diluted samples are transferred to a polystyrene 96 well plate and either 50 μL of TE buffer or 50 μL of a 2% Triton X-100 solution is added to the wells. The plate is incubated at a temperature of 37° C. for 15 minutes. The RIBOGREEN® reagent is diluted 1:100 in TE buffer, and 100 μL of this solution is added to each well. The fluorescence intensity can be measured using a fluorescence plate reader (Wallac Victor 1420 Multilabel Counter; Perkin Elmer, Waltham, MA) at an excitation wavelength of, for example, about 480 nm and an emission wavelength of, for example, about 520 nm. The fluorescence values of the reagent blank are subtracted from that of each of the samples and the percentage of free RNA is determined by dividing the fluorescence intensity of the intact sample (without addition of Triton X-100) by the fluorescence value of the disrupted sample (caused by the addition of Triton X-100).

luciferase (Luc) mRNA [4] = assay: Luc expression in liver, lung, spleen and femur 6 hours after intravenous administration; format: in vivo; conditions: mice, 0.5 mpk; for Total Flux Liver / Total Flux Lung / Total Flux Spleen: intravenous
Method: The efficacy of the nanoparticle compositions presented in Table 1A was further evaluated by measuring the expression of modified luciferase in the liver, lung, spleen, and femur upon administration of a given composition. Formulations were administered intravenously to mice (n=3) at a dosage of 0.5 mpk and bioluminescence measured after 6 hours. The standard MC3 formulation and a PBS control were also tested. […] Flux in the liver was lowest for compositions including Compounds 58, 59, 137, and 141. Flux in the spleen was highest for compositions including Compounds 4, 7, 33, 34, 48, 53, 108, 129, 130, and 148, and lowest for compositions including Compounds 9, 59, 124, and 141.
as §1

[5] = Apparent (surface) pKa of the LNP formulation (TNS assay); format: physicochemical; conditions: Table 1A
Method: Using sodium hydroxide (1 M) and hydrochloric acid (1 M), 21 unique buffers were prepared from the master buffer stock at pH values between about 3 and 12. Next, a stock of 300 μM 6-(p-Toluidino)-2-naphthalenesulfonic acid sodium salt (TNS reagent) in DMSO was prepared and the LNP was mixed with the desired formulation buffer at a concentration of 0.04 mg/mL mRNA. This assay has been validated in 1× PBS and 20 mM Tris w/8% sucrose buffer. The buffer solutions at various pH values were added to a 96-well plate in triplicate for each pH. To each well was added 3.26 μL of LNP sample at a mRNA concentration of 0.04 mg/mL and 2.0 μL of 300 μM TNS reagent solution. After careful mixing, the resulting fluorescence values were read for each plate to create a sigmoidal plot of the fluorescence values vs. buffer pH. The […] inflection point of this curve is the apparent pKa of the LNP formulation.

PDI [1]	Size (nm) [1] [nm]	EE (%) [3] [%]	pKa [5]	Structure (SMILES)	Lipid/MC3 AUC (luciferase (Luc) mRNA [2]; Table 3D, intravenous)	AUC (p/s * h) (luciferase (Luc) mRNA [2]; Table 3D, intravenous, Luc)	Total Flux 3 hours (luciferase (Luc) mRNA [2])	Total Flux 6 hours (luciferase (Luc) mRNA [2])	Total Flux 24 hours (luciferase (Luc) mRNA [2])	Total Flux Liver (luciferase (Luc) mRNA [4])	Total Flux Lung (luciferase (Luc) mRNA [4])	Total Flux Spleen (luciferase (Luc) mRNA [4])	Fold increase in total body Luc Flux relative to MC3 at 6 h (luciferase (Luc) mRNA [2])	Flux in the liver (luciferase (Luc) mRNA [4]; i.v., in words)	Flux in the spleen (luciferase (Luc) mRNA [4]; i.v., in words)	6 h Lipid/MC3 Avg. Luc Expression (luciferase (Luc) mRNA [2])	Fold increase AUC Lipid/MC3 (luciferase (Luc) mRNA [2])	AUC (h * p/s) (luciferase (Luc) mRNA [2]; Luc)
0.072	62.6	99.29	6.465	CCCCCCCCCOC(=O)CCCCCCCN(CCO)CCCCCCC/C=C\C(CCCCCCCC)CCCCCCCC [Compound 152, Nonyl (Z)-8-((2-hydroxyethyl)(10-octyloctadec-8-en-1-yl)amino)octanoate]	0.15	2.855E+010	1.56E+09	2.45E+09	4.95E+07	1.43E+08	3.16E+05	6.63E+06						
0.13	107.3	95.66	6.80	CCCCCCCCCOC(=O)CCCCCCCN(CCO)CCCCCCCC(=O)OC(CCCCC)CCCCCCCC (stereo not shown) [Compound 33, nonyl 8-((2-hydroxyethyl)(8-oxo-8-(tetradecan-6-yloxy)octyl)amino) octanoate]			6.53E+10	1.20E+11	3.71E+09	1.78E+10	2.92E+07	3.77E+08	2.74	highest	highest			
0.095	167.9	75.44	7.76	CCCCCCCCCOC(=O)CCCCCCCN(CCO)CCCCCCCOP(=O)(OCCCCCCCC)OCCCCCCCC [Compound 131, Nonyl 8-((7-((bis(octyloxy)phosphoryl)oxy)heptyl)(2-hydroxyethyl)amino)octanoate]			6.97E+09	7.64E+09	2.47E+08	3.52E+08	1.45E+07	8.32E+08				1.05	1.13	9.29E+10
0.15	65.6	97	6.08	CCCCCCCCC(CCC)OC(=O)CCCN(CCO)CCCCCCCC(=O)OC(CCCCCCCC)CCCCCCCC (stereo not shown) [Compound 74, Heptadecan-9-yl 8-((4-(dodecan-4-yloxy)-4-oxobutyl)(2-hydroxyethyl)amino)octanoate]			3.27E+10	2.23E+10	2.75E+08	1.99E+09	6.93E+06	2.26E+07	1.005					
0.160	78.8	90.77	6.13	CCCCCCCCCOC(=O)CCCCCCCN(CCCCCCCC(=O)OC(CCCCCCCC)CCCCCCCC)CCN1CCOCC1 [Compound 103, Heptadecan-9-yl 8-((2-morpholinoethyl)(8-(nonyloxy)-8-oxooctyl)amino)octanoate]			2.68E+09	1.82E+09	9.45E+07	8.48E+07	2.06E+05	2.65E+06				0.250	0.291	2.4E+10
0.14	63.3	99.4	5.66	CCCCCCCCCOC(=O)CCCCCCCN(CCCCCCCC(=O)OC(CCCCCCCC)CCCCCCCC)CCCn1cnc2c(N)ncnc21 [Compound 116, Heptadecan-9-yl 8-((3-(6-amino-9H-purin-9-yl)propyl)(8-(nonyloxy)-8-oxooctyl)amino)octanoate]			3.13E+07	3.86E+07										
0.24	60.8	98.1	5.29	CCCCCCCCCOC(=O)CCCCCCCN(CCO)CCCCCCCC(=O)Oc1ccc(CCCCC)cc1 [Compound 119, Nonyl 8-((2-hydroxyethyl)(8-oxo-8-(4-pentylphenoxy)octyl)amino)octanoate]			1.02E+07	3.74E+07										
0.12	78.7	88.9	6.17	CCCCCCCCCOC(=O)CCCCCCCN(CCCCCCCC(=O)OC(CCCCCCCC)CCCCCCCC)CCCNC(=O)OC [Compound 181, Heptadecan-9-yl 8-((3-((methoxycarbonyl)amino)propyl)(8-(nonyloxy)-8-oxooctyl)amino)octanoate]														
0.24	84.2	99.5	7.62	CCCCCCCCCOC(=O)CCCCCCCN(CCCCCCCC(=O)OC(CCCCCCCC)CCCCCCCC)CCCNC(=O)CO [Compound 198, Heptadecan-9-yl 8-((3-(2-hydroxyacetamido)propyl)(8-(nonyloxy)-8-oxooctyl)amino)octanoate]														
0.11	71.6	94.7	6.16	CCCCCCCCCOC(=O)CCCCCCCN(CCCCCCCC(=O)OC(CCCCCCCC)CCCCCCCC)CCCn1ccnn1 [Compound 179, Heptadecan-9-yl 8-((3-(1H-1,2,3-triazol-1-yl)propyl)(8-(nonyloxy)-8-oxooctyl)amino)octanoate]														
0.74	55	0	4.802	CCCCCCCCCOC(=O)CCCCCCCN(CCCCCCCC(=O)OC(CCCCCCCC)CCCCCCCC)CCCC(F)(F)F [Compound 107]														
0.24	62.4	0	4.43	CCCCCCCCCOC(=O)CCCCCCCN(CCCCCCCC(=O)OC(CCCCCCCC)CCCCCCCC)Cc1ccccc1 [Compound 94, Heptadecan-9-yl 8-(benzyl(8-(nonyloxy)-8-oxooctyl)amino)octanoate]														
